Assay results as given in PubChem BioAssay (NCI).
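Protocol summary: plate cells (96-well), add compound at 5 concentrations, incubate 48 h, interpolate endpoints linearly. Here, GI50 denotes the concentration required for 50% inhibition of growth. TGI marks complete inhibition of growth.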

Tests used:
Assay in all cases: NCI tumour cell line growth inhibition, 48 h
[1] = test system: CAKI-1 renal
[2] = test system: COLO 205 colon
[3] = test system: HCC-2998 colon
[4] = test system: HCT-15 colon
[5] = test system: MOLT-4 leukemia
[6] = test system: NCI-H460 lung
[7] = test system: NCI-H522 lung
[8] = test system: RPMI-8226 leukemia
[9] = test system: SF-268 CNS
[10] = test system: HT29 colon
[11] = test system: MCF7 breast

CC(C)OP(=O)(OC(C)C)/C(=N/Nc1ccc([N+](=O)[O-])cc1)NNC(=O)c1ccccc1
TGI [1]: > 100 µM | TGI [2]: > 100 µM | TGI [3]: 70.4 µM | TGI [4]: > 100 µM | TGI [5]: 42.2 µM | TGI [6]: > 100 µM | TGI [7]: > 100 µM | TGI [8]: > 100 µM | TGI [9]: > 100 µM

Cc1cc(N(CCC#N)CCC#N)ccc1/C=C(\N=[N+]=[N-])C(=O)NC(=O)COc1ccccc1
TGI [1]: > 100 µM | TGI [2]: > 100 µM | TGI [3]: > 100 µM | TGI [4]: > 100 µM | TGI [10]: > 100 µM | TGI [5]: > 100 µM | TGI [6]: > 100 µM | TGI [7]: > 100 µM | TGI [8]: > 100 µM | TGI [9]: > 100 µM

COc1ccc(OC)c(CCc2ccccc2CC(=O)O)c1
TGI [1]: > 100 µM | TGI [2]: > 100 µM | TGI [3]: > 100 µM | TGI [4]: > 100 µM | TGI [10]: > 100 µM | TGI [5]: > 100 µM | TGI [6]: > 100 µM | TGI [7]: > 100 µM | TGI [8]: > 100 µM | TGI [9]: > 100 µM

CCCCCCCC(=O)OC(COC(=O)Cc1ccccc1)COC(=O)C(C)(C)C (stereo not given)
TGI [1]: > 100 µM | TGI [2]: > 100 µM | TGI [3]: > 100 µM | TGI [4]: > 100 µM | TGI [5]: > 100 µM | TGI [6]: > 100 µM | TGI [8]: > 100 µM | TGI [9]: > 100 µM

Cc1nc2c(n1Cc1ccc(F)cc1)C(=O)c1ccccc1C2=O
TGI [2]: > 100 µM | TGI [3]: > 100 µM | TGI [4]: > 100 µM | TGI [10]: > 100 µM | TGI [5]: > 100 µM | TGI [6]: > 100 µM | TGI [7]: 26 µM | TGI [9]: > 100 µM

CCCCCC1CC(C(C)=O)CN1c1ccc(F)cc1 (stereo not given)
TGI [2]: > 100 µM | TGI [3]: > 100 µM | TGI [4]: > 100 µM | TGI [10]: > 100 µM | TGI [6]: > 100 µM | TGI [7]: 56.5 µM | TGI [9]: > 100 µM

N#C/C(=C\c1ccccc1F)C(=O)c1ccccc1
TGI [1]: > 100 µM | TGI [2]: > 100 µM | TGI [3]: > 100 µM | TGI [4]: > 100 µM | TGI [10]: > 100 µM | TGI [5]: > 100 µM | TGI [7]: > 100 µM | TGI [8]: > 100 µM | TGI [9]: > 100 µM

O=C(N/N=C/c1cc(Cl)cc(Cl)c1[O-])c1ccccc1O.O=C(N/N=C/c1cc(Cl)cc(Cl)c1[O-])c1ccccc1O.[Fe+2]
TGI [1]: 69.2 µM | TGI [3]: 26.2 µM | TGI [4]: 19.3 µM | GI50 [5]: 19.2 µM | TGI [5]: > 100 µM | TGI [6]: 38.5 µM | TGI [7]: 23.8 µM | TGI [9]: 38.9 µM

CN(CCO)c1nc(=O)c2c(n1C1OC(CO)C(O)C(O)C1O)CCCC2 (stereo not given)
TGI [1]: > 100 µM | TGI [2]: > 100 µM | TGI [3]: > 100 µM | TGI [4]: > 100 µM | TGI [10]: > 100 µM | TGI [5]: > 100 µM | TGI [6]: > 100 µM | TGI [7]: > 100 µM | TGI [8]: > 100 µM | TGI [9]: > 100 µM

CCOC(=O)C(C(=O)OCC)S(C)(=O)=O
TGI [2]: > 100 µM | TGI [3]: > 100 µM | TGI [10]: > 100 µM | TGI [5]: > 100 µM | TGI [6]: > 100 µM | TGI [7]: > 100 µM | TGI [8]: > 100 µM

COc1cc(Cn2c3ccccc3c3cc(C)cc(OC)c32)cc2c1[nH]c1ccccc12
TGI [2]: > 25 µM | TGI [3]: > 25 µM | GI50 [4]: 16.8 µM | TGI [4]: > 25 µM | GI50 [10]: 16.9 µM | TGI [10]: > 25 µM | GI50 [5]: 8.51 µM | TGI [5]: > 25 µM | GI50 [6]: 10.8 µM | TGI [6]: > 25 µM | GI50 [7]: 5.43 µM | TGI [7]: 21 µM | TGI [8]: > 25 µM | GI50 [9]: 17.5 µM | TGI [9]: > 25 µM

O=C1Nc2n[nH]c(=S)n2NC12c1ccccc1-c1ccccc12
TGI [1]: > 100 µM | TGI [2]: > 100 µM | TGI [3]: > 100 µM | TGI [4]: > 100 µM | TGI [10]: > 100 µM | TGI [11]: > 100 µM | TGI [6]: > 100 µM | TGI [7]: > 100 µM | TGI [9]: > 100 µM

CC(=O)C(C(=O)C(=O)Nc1cc(Cl)c(Cl)cc1Cl)c1csc(N)n1 (stereo not given)
TGI [1]: > 100 µM | TGI [2]: > 100 µM | TGI [3]: > 100 µM | TGI [4]: > 100 µM | TGI [10]: > 100 µM | TGI [5]: > 100 µM | TGI [6]: > 100 µM | TGI [7]: > 100 µM | TGI [8]: > 100 µM | TGI [9]: > 100 µM

COc1cc2cnc3c4cc(O)ccc4ccc3c2cc1OC
TGI [1]: > 100 µM | TGI [2]: 59.8 µM | TGI [3]: > 100 µM | TGI [4]: > 100 µM | TGI [10]: > 100 µM | TGI [5]: > 100 µM | TGI [6]: > 100 µM | TGI [7]: 70.9 µM | TGI [8]: > 100 µM | TGI [9]: > 100 µM

O=S1(=O)OCCOS(=O)(=O)C1(Br)Br
TGI [1]: > 100 µM | TGI [2]: > 100 µM | TGI [3]: > 100 µM | TGI [10]: > 100 µM | TGI [5]: > 100 µM | TGI [7]: > 100 µM | TGI [8]: > 100 µM | TGI [9]: > 100 µM

COc1ccccc1NC(=O)C(=O)C(c1cnc2ccc([N+](=O)[O-])cc2n1)[N+](=O)[O-] (stereo not given)
TGI [1]: > 100 µM | TGI [2]: > 100 µM | TGI [3]: > 100 µM | TGI [4]: > 100 µM | TGI [10]: > 100 µM | TGI [5]: > 100 µM | TGI [6]: > 100 µM | TGI [7]: > 100 µM | TGI [8]: > 100 µM | TGI [9]: > 100 µM

C/C(CC(=O)Nc1cccc([N+](=O)[O-])c1)=N/NC(N)=S
TGI [2]: > 100 µM | TGI [3]: > 100 µM | TGI [10]: > 100 µM | TGI [5]: > 100 µM | TGI [6]: > 100 µM | TGI [7]: > 100 µM | TGI [8]: > 100 µM | TGI [9]: > 100 µM

O=C1CS(=O)c2ccccc2N1 (stereo not given)
TGI [1]: > 100 µM | TGI [2]: > 100 µM | TGI [3]: > 100 µM | TGI [4]: > 100 µM | TGI [10]: > 100 µM | TGI [5]: > 100 µM | TGI [6]: > 100 µM | TGI [7]: > 100 µM | TGI [8]: > 100 µM | TGI [9]: > 100 µM

Cn1cc(-c2csc(-c3cn(CCCN4CCCCC4)c4ccc(Br)cc34)n2)c2cccnc21
GI50 [3]: 1.86 µM | TGI [3]: 3.61 µM | GI50 [6]: 1.87 µM | TGI [6]: 3.4 µM
